Data published in patent publication US5521173A, “Tricyclic benzazepine vasopressin antagonists” (American Home Products Corporation, priority 1995, dated 1996).

Assays:
[1] = biological target: T1, Vasopressin V1 receptor subtype in Human Platelet Membranes (Homo sapiens, UniProt P37288); assay: Binding to Vasopressin V1 receptor subtype in Human Platelet Membranes
T1 construct: tissue Hudson Valley Blood Services, Westchester Medical Center, Valhalla, N.Y; host or cells: human platelets (frozen platelet rich plasma)
Protocol: Radioligand Binding Experiments with Human Platelet Membranes
(a) Platelet Membrane Preparation
Frozen platelet rich plasma (PRP), (Platelet Source: Hudson Valley Blood Services, Westchester Medical Center, Valhalla, N.Y.) are thawed to room temperature. The tubes containing the PRP are centrifuged at 16,000×g for 10 min. at 4° C. and the supernatant fluid discarded. The platelets resuspended in an equal volume of 50.0 mM Tris.HCl, pH 7.5 containing 120 mM NaCl and 20.0 mM EDTA. The suspension is recentrifuged at 16,000× g for 10 min. This washing step is repeated one more time. The wash discarded and the lysed pellets homogenized in low ionic strength buffer of Tris.HCl, 5.0 mM, pH 7.5 containing 5.0 mM EDTA. The homogenate is centrifuged at 39,000× g for 10 min. The resulting pellet is resuspended in Tris.HCl buffer, 70.0 mM, pH 7.5 and recentrifuged at 39,000× g for 10 min. The final pellet is resuspended in 50.0 mM Tris.HCl buffer pH 7.4 containing 120 mM NaCl and 5.0 mM KCl to give 1.0-2.0 mg protein per ml of suspension.
(b) Binding to Vasopressin V1 receptor subtype in Human Platelet Membranes
In wells of a 96 well format microtiter plate, add 100 μl of 50.0 mM Tris.HCl buffer containing 0.2% BSA and a mixture of protease inhibitors (aprotinin, leupeptin etc.). Then add 20 μl of [^3 H]Ligand (Manning or Arg^8 Vasopressin), to give final concentrations ranging from 0.01 to 10.0 nM. Initiate the binding by adding 80.0 μl of platelet suspension (approx. 100 μg protein). Mix all reagents by pipetting the mixture up and down a few times. Non specific binding is measured in the presence of 1.0 µM of unlabeled ligand (Manning or Arg^8 Vasopressin). Let the mixture stand undisturbed at room temperature for ninety (90) min. Upon this time, rapidly filter off the incubate under vacuum suction over GF/B filters, using a Brandel Harvester. Determine the radioactivity caught on the filter disks by the addition of liquid scintillant and counting in a liquid scintillator.

[2] = biological target: T2, Human V2 Vasopressin Receptor (Homo sapiens, UniProt P30518); assay: Binding to Membranes of Mouse Fibroblast Cell Line (LV-2) Transfected with the cDNA Expressing the Human V2 Vasopressin Receptor; settings: ** LV-2 cell membranes
T2 construct: expressed in transfected cells; host or cells: mouse fibroblast cell line LV-2
Protocol: (a) Membrane Preparation Flasks of 175 ml capacity, containing attached cells grown to confluence, are cleared of culture medium by aspiration. […] The content of all flasks is poured into a centrifuge tube and the cells pelleted at 300× g for 15 min. The Hank's based solution is aspirated off and the cells homogenized with a polytron at setting #6 for 10 sec in 10.0 mM Tris.HCl buffer, pH 7.4 containing 0.25M sucrose and 1.0 mM EDTA. The homogenate is centrifuged at 1500× g for 10 min to remove ghost membranes. The supernatant fluid is centrifuged at 100,000× g for 60 min to pellet the receptor protein. […] (b) Receptor Binding […] Non specific binding is assessed in the presence of 1.0 μM of unlabeled ligand, added in 20 μl volume. […] The radioactivity trapped on the filter disk by the ligand-receptor complex is assessed by liquid scintillation counting in a Packard LS Counter, with an efficiency of 65% for tritium. The data are analyzed for IC50 values by the LUNDON-2 program for competition (LUNDON SOFTWARE, Ohio).

oxytocin receptors = biological target: T3, oxytocin receptors (Rattus norvegicus, UniProt P70536); assay: Oxytocin Receptor Binding; set-up: species or system rat (female Sprague-Dawley); settings: for IC50: 1.0 nM [3H]OT
T3 construct: The uteri are dissected out, cleaned of fat and connective tissues; from tissue; host or cells: uteri of DES-treated female Sprague-Dawley rats
T3 sequence (P70536 1-388): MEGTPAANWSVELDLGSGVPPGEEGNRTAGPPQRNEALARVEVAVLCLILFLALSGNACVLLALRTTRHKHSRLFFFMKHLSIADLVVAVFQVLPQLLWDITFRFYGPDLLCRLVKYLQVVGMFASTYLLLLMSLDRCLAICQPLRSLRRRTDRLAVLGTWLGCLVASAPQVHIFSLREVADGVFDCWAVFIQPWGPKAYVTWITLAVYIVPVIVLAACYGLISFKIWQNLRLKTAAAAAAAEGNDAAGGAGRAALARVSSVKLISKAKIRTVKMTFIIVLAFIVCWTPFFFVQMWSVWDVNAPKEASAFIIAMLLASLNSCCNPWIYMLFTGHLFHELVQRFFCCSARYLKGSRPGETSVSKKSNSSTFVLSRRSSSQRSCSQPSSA
Protocol: Oxytocin Receptor Binding
Female Sprague-Dawley rats weighing approximately 200-250 g are injected intramuscularly (i.m.) with 0.3 mg/kg of body weight of diethylstilbestrol (DES). The rats are sacrificed 18 hours later under pentobarbital anesthesia. The uteri are dissected out, cleaned of fat and connective tissues and rinsed in 50 ml of normal saline. The tissue pooled from six rats is homogenized in 50 ml of […] Tris.HCl, containing 0.5 mM dithiothreitol and 1.0 mM EDTA, adjusted to pH 7.4, using a polytron at setting 6 with three passes of 10 sec each. The homogenate is passed through two (2) layers of cheesecloth and the filtrate centrifuged at 1000× g for 10 min. The clear supernatant is removed and recentrifuged at 165,000× g for 30 min. The resulting pellet containing the oxytocin receptors is resuspended in 50.0 mM Tris.HCl containing 5.0 mM MgCl2 at pH 7.4, to give a protein concentration of 2.5 mg/ml of tissue suspension. This preparation is used in subsequent binding assays with [^3 H]Oxytocin.
Binding of 3,5-[^3 H]Oxytocin ([^3 H]OT) to its receptors is done in microtiter plates using [^3 H]OT, at various concentrations, in an assay buffer of 50.0 mM Tris.HCl, pH 7.4 and containing 5.0 mM MgCl2, and a mixture of protease inhibitors: BSA, 0.1 mg; aprotinin, 1.0 mg; 1,10-phenanthroline, 2.0 mg; […], 10.0 mg; and PMSF, 0.3 mg per 100 ml of buffer solution. Non-specific binding is determined in the presence of 1.0 uM unlabeled OT. The binding reaction is terminated after 60 min., at 22° C., by rapid filtration through glass fiber filters using a Brandel, cell harvester (Biomedical Research and Development Laboratories,Inc., Gaithersburg, Md.). Competition experiments are conducted at equilibrium using 1.0 nM [^3 H]OT and varying the concentration of the displacing agents. The concentrations of agent displacing 50% of [^3 H]OT at its sites (IC50) are calculated by a computer assisted LUNDON-2 program (LUNDON SOFTWARE INC., Ohio, USA).

T2 sequence (P30518 whole entry): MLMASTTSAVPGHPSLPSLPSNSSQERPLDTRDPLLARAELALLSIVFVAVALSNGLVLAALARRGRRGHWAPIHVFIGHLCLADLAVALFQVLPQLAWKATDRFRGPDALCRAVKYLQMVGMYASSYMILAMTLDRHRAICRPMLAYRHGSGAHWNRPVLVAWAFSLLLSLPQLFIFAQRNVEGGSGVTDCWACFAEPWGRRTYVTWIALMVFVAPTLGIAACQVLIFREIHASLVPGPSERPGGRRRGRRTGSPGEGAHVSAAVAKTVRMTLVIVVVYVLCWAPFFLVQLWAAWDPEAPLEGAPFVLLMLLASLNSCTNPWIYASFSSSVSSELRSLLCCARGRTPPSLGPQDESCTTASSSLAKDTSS
T1 sequence (P37288 whole entry): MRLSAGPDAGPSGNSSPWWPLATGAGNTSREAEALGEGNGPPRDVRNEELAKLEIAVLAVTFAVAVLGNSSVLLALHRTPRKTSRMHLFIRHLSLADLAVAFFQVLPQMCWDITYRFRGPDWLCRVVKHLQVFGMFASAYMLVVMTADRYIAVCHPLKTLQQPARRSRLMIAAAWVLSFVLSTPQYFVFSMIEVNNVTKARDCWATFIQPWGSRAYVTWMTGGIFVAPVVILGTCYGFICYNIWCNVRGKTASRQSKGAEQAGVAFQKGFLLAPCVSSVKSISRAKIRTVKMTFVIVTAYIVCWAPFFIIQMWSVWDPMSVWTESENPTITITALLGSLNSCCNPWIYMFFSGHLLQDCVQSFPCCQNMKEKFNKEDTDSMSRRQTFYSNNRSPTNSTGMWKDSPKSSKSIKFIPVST

Structure (SMILES) | IC50 [1] [nM] | IC50 [2] [nM] | inhibition at 10 µM (oxytocin receptors) [%] | IC50 (oxytocin receptors) [nM]
O=C(c1ccc(-c2cc(F)cc(F)c2)cc1)N1Cc2cccn2Cc2ccccc21 [Example 3, 10,11-Dihydro-10-[4-(3,5-difluorophenyl)benzoyl]-5H-pyrrolo[2,1-c][1,4]benzodiazepine] | 85 | 2500 | 89 | 2600
O=C(c1ccc(-c2ccccc2)cc1)N1Cc2ccnn2Cc2ccccc21 [Example 7, 5-([1,1'-Biphenyl]-4-ylcarbonyl)-5,10-dihydro-4H-pyrazolo[5,1-c][1,4]benzodiazepine] | 14 | 1700 | 100 | 230
O=C(c1ccc(-c2ccccc2C(F)(F)F)cc1)N1Cc2cccn2Cc2ccccc21 [Example 8] |  |  | 95 | 1270
O=C(c1ccc(-c2ccccc2)cc1)N1Cc2cccn2Cc2ccccc21 [Example 19, 10-([1,1'-Biphenyl]-4-ylcarbonyl)-10,11-dihydro-5H-pyrrolo[2,1-c][1,4]benzodiazepine] | 2.9 | 390 | 81 | 43
O=C(c1ccc(-c2ccccn2)cc1)N1Cc2cccn2Cc2ccccc21 [Example 9, 10,11-Dihydro-10-[4-(2-pyridinyl)benzoyl]-5H-pyrrolo[2,1-c][1,4]benzodiazepine] |  |  | 100 | 130
